Experimental findings from the SangsterLogP compilation are described below.

Usually logP stands for the decadic logarithm of the partition coefficient of the neutral form, usually between octanol and water. A low value points to lower lipophilicity. The molecule `CCCCC(CC)C(=O)N1c2ccc(C)cc2C2CN(C)CCC21` (stereo not given) had a logP of 4.14.

For `CC(=O)N1c2ccc(C)cc2[C@H]2CN(C)CC[C@H]21` (relative stereo), the logP was 1.25.

Molecule `CCCCCCC(=O)N1c2ccc(C)cc2[C@H]2CN(C)CC[C@H]21` (relative stereo) registered a log partition coefficient (logP) of 3.57. The value for `CCCCCCCCC(=O)N1c2ccc(C)cc2[C@H]2CN(C)CC[C@H]21` (relative stereo) was 4.41; that for `CCCCCCCCCC(=O)N1c2ccc(C)cc2[C@H]2CN(C)CC[C@H]21` (relative stereo) was 4.83.

Turning to `CCCCCCCCCCCC(=O)N1c2ccc(C)cc2[C@H]2CN(C)CC[C@H]21` (relative stereo), the logP turned out to be 5.66. Regarding `CCCCCCCCCCCCCC(=O)N1c2ccc(C)cc2[C@H]2CN(C)CC[C@H]21` (relative stereo), the logP worked out at 6.7. Then `CCCCCCCCCCCCCCCC(=O)N1c2ccc(C)cc2[C@H]2CN(C)CC[C@H]21` (relative stereo), with 7.33; and `Cc1ccc2c(c1)[C@H]1CN(C)CC[C@H]1N2` (relative stereo), with 1.6; and `Cc1ccc2c(c1)[C@H]1CN(C)CC[C@H]1N2C(=O)C=Cc1ccccc1` (relative stereo), with 3.49.
